Measurements from article PMC3105188 (The Journal of steroid biochemistry and molecular biology, 2011).
Where a chain is given by its changes, count along the chain named. Entries after “also recorded” stand apart in the source; their conditions may differ. Read-outs that look alike come from different tables or passages of the source.

Columns and labels:
wild-type hVDR [1] = target: T1, wild-type hVDR (Homo sapiens, UniProt P11473); format: cell-based
T1 sequence (P11473 1-427): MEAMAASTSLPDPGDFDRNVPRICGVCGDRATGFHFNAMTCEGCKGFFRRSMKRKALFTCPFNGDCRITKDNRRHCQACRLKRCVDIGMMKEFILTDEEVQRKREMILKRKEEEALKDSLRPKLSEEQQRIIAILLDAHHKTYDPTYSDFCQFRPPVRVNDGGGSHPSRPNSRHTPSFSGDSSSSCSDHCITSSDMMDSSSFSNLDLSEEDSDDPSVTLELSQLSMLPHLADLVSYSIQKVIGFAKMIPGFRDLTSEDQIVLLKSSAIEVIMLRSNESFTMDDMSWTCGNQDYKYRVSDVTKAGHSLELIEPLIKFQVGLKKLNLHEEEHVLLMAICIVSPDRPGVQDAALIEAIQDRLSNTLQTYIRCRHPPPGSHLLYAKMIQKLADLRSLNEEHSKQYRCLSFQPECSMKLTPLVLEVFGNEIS

hVDR mutant H305Y [2] = target: T2, hVDR mutant H305Y (Homo sapiens, UniProt P11473, H305Y); format: cell-based; conditions: HEK293T
T2 sequence (P11473 127-423 H305Y limits assumed): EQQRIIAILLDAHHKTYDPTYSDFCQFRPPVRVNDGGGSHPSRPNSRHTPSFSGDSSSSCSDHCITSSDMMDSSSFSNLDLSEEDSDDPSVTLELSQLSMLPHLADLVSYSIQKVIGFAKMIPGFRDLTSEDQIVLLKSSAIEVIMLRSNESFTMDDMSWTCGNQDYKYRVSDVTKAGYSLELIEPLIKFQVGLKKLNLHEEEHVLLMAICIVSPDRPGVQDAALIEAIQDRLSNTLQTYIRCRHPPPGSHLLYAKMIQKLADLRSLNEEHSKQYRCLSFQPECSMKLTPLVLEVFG

hVDR mutant H305F/H397Y [3] = target: T3, hVDR mutant H305F/H397Y (Homo sapiens, UniProt P11473, H305F/H397Y); format: cell-based
T3 sequence (P11473 127-423 H305F/H397Y limits assumed): T2 sequence (P11473 127-423 H305Y limits assumed) with Y179F, H271Y

hVDR mutant H305F [4] = target: T4, hVDR mutant H305F (Homo sapiens, UniProt P11473, H305F); format: cell-based; conditions: HEK293T
T4 sequence (P11473 127-423 H305F limits assumed): T2 sequence (P11473 127-423 H305Y limits assumed) with Y179F

wild-type hVDR [5] = target: T5, wild-type hVDR (Homo sapiens, UniProt P11473); format: cell-based; conditions: HEK293T
T5 sequence (P11473 127-423 limits assumed): T2 sequence (P11473 127-423 H305Y limits assumed) with Y179H

hVDR mutant H305F [6] = target: hVDR mutant H305F (Homo sapiens, UniProt P11473, H305F); test: Chemical complementation, yeast PJ69-4A liquid quantitation growth assay; format: cell-based
Target sequence in this assay (P11473 127-423 H305F limits assumed): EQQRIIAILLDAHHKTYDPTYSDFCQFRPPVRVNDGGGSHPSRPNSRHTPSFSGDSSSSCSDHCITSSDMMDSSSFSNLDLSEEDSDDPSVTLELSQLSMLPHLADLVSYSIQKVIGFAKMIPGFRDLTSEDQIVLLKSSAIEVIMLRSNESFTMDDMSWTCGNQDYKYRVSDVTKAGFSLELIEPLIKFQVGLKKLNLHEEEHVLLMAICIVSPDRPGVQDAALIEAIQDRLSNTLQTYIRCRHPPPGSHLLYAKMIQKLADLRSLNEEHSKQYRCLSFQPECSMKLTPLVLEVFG
Target sequence in this assay (Q9Y6Q9 whole entry partner): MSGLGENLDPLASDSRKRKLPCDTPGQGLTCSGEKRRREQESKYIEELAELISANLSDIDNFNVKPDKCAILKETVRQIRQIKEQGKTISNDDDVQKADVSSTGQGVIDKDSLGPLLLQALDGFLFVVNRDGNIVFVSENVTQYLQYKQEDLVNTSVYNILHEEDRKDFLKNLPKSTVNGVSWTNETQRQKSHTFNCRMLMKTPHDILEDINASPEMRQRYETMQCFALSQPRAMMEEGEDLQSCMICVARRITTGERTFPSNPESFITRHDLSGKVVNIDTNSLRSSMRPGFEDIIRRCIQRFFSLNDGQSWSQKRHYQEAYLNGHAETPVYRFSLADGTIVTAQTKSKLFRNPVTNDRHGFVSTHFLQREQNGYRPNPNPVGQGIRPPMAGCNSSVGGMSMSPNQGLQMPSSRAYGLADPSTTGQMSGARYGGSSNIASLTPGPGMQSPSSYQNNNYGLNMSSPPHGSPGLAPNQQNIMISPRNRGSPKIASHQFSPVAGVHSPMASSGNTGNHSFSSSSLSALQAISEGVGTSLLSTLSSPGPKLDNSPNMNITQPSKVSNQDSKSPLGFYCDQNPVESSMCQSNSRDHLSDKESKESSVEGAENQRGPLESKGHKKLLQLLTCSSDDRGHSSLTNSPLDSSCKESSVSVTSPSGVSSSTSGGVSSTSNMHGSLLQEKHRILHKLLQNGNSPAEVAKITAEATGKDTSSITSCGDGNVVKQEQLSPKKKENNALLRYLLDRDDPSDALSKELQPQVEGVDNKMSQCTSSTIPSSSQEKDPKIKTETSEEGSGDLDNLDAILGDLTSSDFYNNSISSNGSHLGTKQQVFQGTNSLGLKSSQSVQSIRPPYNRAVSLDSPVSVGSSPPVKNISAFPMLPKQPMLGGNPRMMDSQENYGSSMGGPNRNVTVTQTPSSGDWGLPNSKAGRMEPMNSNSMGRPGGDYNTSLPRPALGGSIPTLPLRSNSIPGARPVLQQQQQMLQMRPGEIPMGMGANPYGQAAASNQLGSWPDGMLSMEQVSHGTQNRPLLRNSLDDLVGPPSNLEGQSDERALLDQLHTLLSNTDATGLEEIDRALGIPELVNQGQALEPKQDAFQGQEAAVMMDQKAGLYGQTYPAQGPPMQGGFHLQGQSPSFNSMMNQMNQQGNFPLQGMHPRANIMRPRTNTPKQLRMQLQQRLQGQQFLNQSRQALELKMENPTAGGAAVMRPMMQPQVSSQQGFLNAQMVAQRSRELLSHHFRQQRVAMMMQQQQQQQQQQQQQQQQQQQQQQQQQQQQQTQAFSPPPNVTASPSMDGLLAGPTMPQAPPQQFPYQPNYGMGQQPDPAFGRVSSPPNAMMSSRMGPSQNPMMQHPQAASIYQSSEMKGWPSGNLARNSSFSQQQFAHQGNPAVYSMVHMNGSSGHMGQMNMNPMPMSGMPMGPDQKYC

hVDR mutant H305Y [7] = target: hVDR mutant H305Y (Homo sapiens, UniProt P11473, H305Y); test: as above; format: cell-based
Target sequence in this assay (Q9Y6Q9 whole entry partner, one chain of several): as the sequence (Q9Y6Q9 whole entry partner) above

hVDR mutant H305F/H397Y [8] = target: hVDR mutant H305F/H397Y (Homo sapiens, UniProt P11473, H305F/H397Y); conditions: adenine selective media (-ALW)
Target sequence in this assay (P11473 127-423 H305F/H397Y limits assumed): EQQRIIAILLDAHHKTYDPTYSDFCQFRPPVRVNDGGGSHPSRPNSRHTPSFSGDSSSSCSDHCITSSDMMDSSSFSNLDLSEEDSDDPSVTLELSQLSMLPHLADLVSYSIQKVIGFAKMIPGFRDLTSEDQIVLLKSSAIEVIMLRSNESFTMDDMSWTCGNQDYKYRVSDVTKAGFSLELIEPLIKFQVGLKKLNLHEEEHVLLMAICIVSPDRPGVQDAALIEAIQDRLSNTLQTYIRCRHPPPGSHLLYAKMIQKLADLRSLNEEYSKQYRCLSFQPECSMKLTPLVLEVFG
Target sequence in this assay (Q9Y6Q9 whole entry partner): as the sequence (Q9Y6Q9 whole entry partner) above

hVDR H305F = conditions: antagonist on wild-type hVDR; cited from earlier work
[9] = histidine selective media (data not shown)

| SMILES | ligand-activated growth (in words) (wild-type hVDR [1]; Figure 2B, any ligand concentration) | ligand concentration at which activation is displayed (hVDR mutant H305Y [2]) | lowest ligand concentration giving activation (hVDR mutant H305F/H397Y [3]; mammalian cell assays) | ligand concentration at which activation is displayed (hVDR mutant H305F [4]) | activation of receptor (in words) (wild-type hVDR [5]) | ligand-activated growth (in words) (wild-type hVDR [1]; adenine selective media (-ALW)) | ligand concentration at which growth is observed (wild-type hVDR [1]; histidine selective media (SC-HLW + 0.1 mM 3AT), OD 630) | ligand concentration at which growth is observed (hVDR mutant H305F [6]; adenine selective media (-ALW)) | ligand concentration at which growth is observed (hVDR mutant H305F [6]; [9]) | ligand concentration at which activation is displayed (hVDR mutant H305F/H397Y [3]; HEK293T) | ligand concentration at which activation is displayed (wild-type hVDR [5]) | ligand concentration at which growth is observed (hVDR mutant H305Y [7]; adenine selective media (-ALW)) | ligand concentration at which growth is observed (hVDR mutant H305Y [7]; [9]) | ligand concentration at which growth/activation is observed (hVDR mutant H305F/H397Y [8]) | functional character with the H305F mutation (in words) (hVDR H305F) |
| --- | --- | --- | --- | --- | --- | --- | --- | --- | --- | --- | --- | --- | --- | --- | --- |
| C=C1CC[C@H](O)C/C1=C/C=C1\CCC[C@]2(C)[C@@H]([C@H](C)CCCC(C)C)CC[C@@H]12 [Cholecalciferol, cholecalciferol] | No ligand activated growth; also recorded: not observed | 1 µM | 100 nM | 1 µM | does not activate; also recorded: no activation | – | – | – | – | – | – | – | – | – | – |
| C[C@H](CCC(=O)O)[C@H]1CC[C@H]2[C@@H]3CC[C@@H]4C[C@H](O)CC[C@]4(C)[C@H]3CC[C@]12C [Lithocholic Acid, lithocholic acid] | – | 1 µM | – | – | – | no growth | 10 µM | 1 µM | 0.1 µM | 1 µM | 100 µM | 1 µM | 0.1 µM | 1 µM | – |
| C=C1C[C@H](C[C@@H](C)[C@H]2CC[C@H]3/C(=C/C=C4/C[C@@H](O)C[C@H](O)C4=C)CCC[C@]23C)OC1=O [MK, (23S)-25-dehydro-1alpha(OH)-vitamin D3-26,23-lactone] | – | – | – | – | – | – | – | – | – | – | – | – | – | – | superagonist |
